Source: ChEMBL document CHEMBL3046925, “,-Dibromoacetophenones mediated synthesis of some new 7H-7-alkoxy-3-alkyl/phenyl-6-aryl-s-triazolo[3,4-b][1,3,4]thiadiazines and their antimicrobial evaluation” (2012)
In brackets after ≈: the same amount, converted by molar mass. Activity calls are given as the source filed them. No cut-off for these calls is given here.

Experiments:
[1] = test system: Candida albicans; assay: Antimicrobial activity against Candida albicans MTCC 227 at 2 mg/ml by agar well diffusion method; format: functional; details: for zone of inhibition at 2000 µg/mL: read-out: DIZ
[2] = test system: Bacillus subtilis; assay: microbe, parasite or virus in culture; format: functional; details: MTCC 121, 24 h
Description: (§1) Antimicrobial activity against Bacillus subtilis MTCC 121 at 2 mg/ml after 24 hr by two-fold serial dilution method

[3] = test system: Escherichia coli; assay: Antimicrobial activity against Escherichia coli MTCC 1652 at 2 mg/ml after 24 hr by agar well diffusion method; format: functional, organism-based
[4] = test system: Staphylococcus aureus; assay: Antimicrobial activity against Staphylococcus aureus MTCC 96 at 2 mg/ml after 24 hr by agar well diffusion method; format: functional; details: MTCC 96, 24 h, read-out: DIZ
[5] = test system: Saccharomyces cerevisiae; assay: Antimicrobial activity against Saccharomyces cerevisiae MTCC 170 after 24 hr by two-fold serial dilution method; format: functional
[6] = test system: Bacillus subtilis; assay: microbe, parasite or virus in culture; format: functional; details: MTCC 121, 24 h, read-out: DIZ
Description: (§2) Antimicrobial activity against Bacillus subtilis MTCC 121 at 2 mg/ml after 24 hr by agar well diffusion method

[7] = test system: Pseudomonas aeruginosa; assay: Antimicrobial activity against Pseudomonas aeruginosa MTCC 741 at 2 mg/ml after 24 hr by agar well diffusion method; format: functional, organism-based
[8] = test system: Staphylococcus aureus; assay: Antimicrobial activity against Staphylococcus aureus MTCC 96 after 24 hr by two-fold serial dilution method; format: functional; details: MTCC 96, 24 h
[9] = test system: Saccharomyces cerevisiae; assay: Antimicrobial activity against Saccharomyces cerevisiae MTCC 170 at 2 mg/ml after 24 hr by agar well diffusion method; format: functional; details: for zone of inhibition at 2000 µg/mL: MTCC 170, 24 h, read-out: DIZ
[10] = test system: Candida albicans; assay: Antimicrobial activity against Candida albicans MTCC 227 at 2 mg/ml by two-fold serial dilution method; format: functional
[11] = test system: Bacillus subtilis; details: MTCC 121
Description: as §1

[12] = test system: Staphylococcus aureus; details: MTCC 96
[13] = test system: Bacillus subtilis; details: MTCC 121; remark: listed apart in the source
Description: as §2

[14] = test system: Staphylococcus aureus; details: MTCC 96; remark: listed apart in the source

Row | MIC [2] [µg/mL] | MIC [5] | MIC [8] [µg/mL] | MIC [10] | MIC ([5]; MTCC 170, 24 h) [µg/mL] | MIC [11] | MIC [14] | SMILES | diameter of the inhibition zone (DIZ) [1] | Activity [3] | zone of inhibition at 2000 µg/mL [4] [mm] | zone of inhibition at 2000 µg/mL [6] [mm] | Activity [7] | diameter of the inhibition zone (DIZ) [9] | zone of inhibition at 2000 µg/mL [9] [mm] | zone of inhibition at 2000 µg/mL [1] [mm] | DIZ [12] | DIZ [13]
1 | > 256 | inactive | 256 (≈ 847 µM) | inactive |  |  |  | CCc1nnc2n1N=C(c1ccccc1)C(OC(C)C)S2 (stereo not drawn) | inactive | inactive | 13.6 | 12.3 | inactive | inactive |  |  |  | 
2 | 128 (≈ 423 µM) | inactive | 256 (≈ 847 µM) | inactive |  |  |  | CCCc1nnc2n1N=C(c1ccccc1)C(OCC)S2 (stereo not drawn) | inactive | inactive | 13.6 | 17.6 | inactive | inactive |  |  |  | 
3 | 256 (≈ 933 µM) |  | 256 (≈ 933 µM) | inactive | 128 (≈ 467 µM) |  |  | CC(C)OC1Sc2nncn2N=C1c1ccccc1 (stereo not drawn) | inactive | inactive | 14.6 | 13.6 | inactive |  | 13.3 |  |  | 
4 | 64 (≈ 222 µM) | inactive | 256 (≈ 888 µM) | inactive |  |  |  | CCOC1Sc2nnc(CC)n2N=C1c1ccccc1 (stereo not drawn) | inactive | inactive | 13.6 | 18.3 | inactive | inactive |  |  |  | 
5 | 256 (≈ 809 µM) | inactive | > 256 | inactive |  |  |  | CCCc1nnc2n1N=C(c1ccccc1)C(OC(C)C)S2 (stereo not drawn) | inactive | inactive | 12.3 | 14.6 | inactive | inactive |  |  |  | 
6 | 128 (≈ 423 µM) |  | > 256 | inactive | > 256 |  |  | CCOC1Sc2nnc(CC)n2N=C1c1ccc(C)cc1 (stereo not drawn) | inactive | inactive | 12.3 | 17 | inactive |  | 10.6 |  |  | 
7 | 128 (≈ 380 µM) |  | > 256 | inactive | > 256 |  |  | CCCOC1Sc2nnc(CC)n2N=C1c1ccc(Cl)cc1 (stereo not drawn) | inactive | inactive | 12.6 | 16.3 | inactive |  | 10.3 |  |  | 
8 | 64 (≈ 222 µM) |  | 128 (≈ 444 µM) | inactive | 256 (≈ 888 µM) |  |  | CCCc1nnc2n1N=C(c1ccccc1)C(OC)S2 (stereo not drawn) | inactive | inactive | 16 | 18.3 | inactive |  | 12.6 |  |  | 
9 |  |  |  | 128 µg/mL (≈ 418 µM) | 128 (≈ 418 µM) | inactive | inactive | CCOC1Sc2nnc(CC)n2N=C1c1ccc(F)cc1 (stereo not drawn) |  | inactive |  |  | inactive |  | 13.6 | 13 | inactive | inactive
10 | > 256 |  | > 256 | inactive | > 256 |  |  | CCc1nnc2n1N=C(c1ccc(Cl)cc1)C(OC(C)C)S2 (stereo not drawn) | inactive | inactive | 11.3 | 12.3 | inactive |  | 11.3 |  |  | 
11 | 64 (≈ 246 µM) |  | 128 (≈ 492 µM) | inactive | 128 (≈ 492 µM) |  |  | CCOC1Sc2nncn2N=C1c1ccccc1 (stereo not drawn) |  | inactive | 16.3 | 20.3 | inactive |  | 13.6 | 13.6 |  | 
12 | 128 (≈ 380 µM) |  | 16 (≈ 47.6 µM) | 64 µg/mL (≈ 190 µM) | 32 (≈ 95.1 µM) |  |  | CCOC1Sc2nnc(-c3ccccc3)n2N=C1c1ccccc1 (stereo not drawn) |  | inactive | 24.3 | 17.6 | inactive |  | 17.6 | 15.6 |  | 
13 | 128 (≈ 405 µM) |  | 256 (≈ 809 µM) | inactive | 64 (≈ 202 µM) |  |  | CCCOC1Sc2nnc(CCC)n2N=C1c1ccccc1 (stereo not drawn) | inactive | inactive | 13.6 | 16.3 | inactive |  | 15.3 |  |  | 
14 | 256 (≈ 697 µM) | inactive | > 256 | inactive |  |  |  | CCOC1Sc2nnc(CC)n2N=C1c1ccc(Br)cc1 (stereo not drawn) | inactive | inactive | 12.3 | 13.6 | inactive | inactive |  |  |  | 
15 |  |  |  | 64 µg/mL (≈ 198 µM) | 32 (≈ 99.1 µM) | inactive | inactive | CCOC1Sc2nnc(CC)n2N=C1c1ccc(Cl)cc1 (stereo not drawn) |  | inactive |  |  | inactive |  | 18.3 | 15.6 | inactive | inactive
16 | 64 (≈ 199 µM) |  | 16 (≈ 49.6 µM) | inactive | 32 (≈ 99.3 µM) |  |  | COC1Sc2nnc(-c3ccccc3)n2N=C1c1ccccc1 (stereo not drawn) | inactive | inactive | 25.6 | 18 | inactive |  | 18.6 |  |  | 
17 | 256 (≈ 847 µM) | inactive | 256 (≈ 847 µM) | inactive |  |  |  | CCCOC1Sc2nnc(CC)n2N=C1c1ccccc1 (stereo not drawn) | inactive | inactive | 14 | 13.6 | inactive | inactive |  |  |  | 
18 | 64 (≈ 260 µM) |  | 64 (≈ 260 µM) | 128 µg/mL (≈ 520 µM) | 128 (≈ 520 µM) |  |  | COC1Sc2nncn2N=C1c1ccccc1 (stereo not drawn) |  | inactive | 19.6 | 18.6 | inactive |  | 13.6 | 13.3 |  | 
19 | 32 (≈ 117 µM) |  | 32 (≈ 117 µM) | 64 µg/mL (≈ 233 µM) | 64 (≈ 233 µM) |  |  | CCc1nnc2n1N=C(c1ccccc1)C(OC)S2 (stereo not drawn) |  | inactive | 22.3 | 21.6 | inactive |  | 15.3 | 16.3 |  | 
20 |  |  |  | 100 µg/mL (≈ 108 µM) | 100 (≈ 108 µM) |  |  | C[C@@H]1[C@H](O)[C@@H](C)/C=C/C=C/C=C/C=C/C=C/C=C/C=C/[C@H](O[C@@H]2O[C@H](C)[C@@H](O)[C@H](N)[C@@H]2O)C[C@@H]2O[C@](O)(C[C@@H](O)C[C@@H](O)[C@H](O)CC[C@@H](O)C[C@@H](O)CC(=O)O[C@H]1C)C[C@H](O)[C@H]2C(=O)O [AMPHOTERICIN B] |  |  |  |  |  |  | 13.6 | 14.3 |  | 
21 | 128 (≈ 365 µM) |  | 64 (≈ 183 µM) | inactive | 64 (≈ 183 µM) |  |  | CCCOC1Sc2nnc(-c3ccccc3)n2N=C1c1ccccc1 (stereo not drawn) | inactive | inactive | 20.6 | 17.3 | inactive |  | 17.3 |  |  | 
22 | 256 (≈ 730 µM) |  | 128 (≈ 365 µM) | inactive | 128 (≈ 365 µM) |  |  | CC(C)OC1Sc2nnc(-c3ccccc3)n2N=C1c1ccccc1 (stereo not drawn) | inactive | inactive | 18.3 | 15.6 | inactive |  | 13.3 |  |  | 
23 | 128 (≈ 415 µM) |  | 64 (≈ 207 µM) | 128 µg/mL (≈ 415 µM) | 128 (≈ 415 µM) |  |  | CCc1nnc2n1N=C(c1ccc(Cl)cc1)C(OC)S2 (stereo not drawn) |  | inactive | 19.3 | 16.3 | inactive |  | 12.6 | 13 |  | 
24 | 64 (≈ 233 µM) | inactive | 128 (≈ 467 µM) | inactive |  |  |  | CCCOC1Sc2nncn2N=C1c1ccccc1 (stereo not drawn) | inactive | inactive | 15.6 | 18.3 | inactive | inactive |  |  |  | 

Row | SMILES | MIC [2] [µg/mL] | MIC [5] | MIC [8] [µg/mL] | MIC [10] | MIC ([5]; MTCC 170, 24 h) [µg/mL] | MIC [11] | MIC [14] | diameter of the inhibition zone (DIZ) [1] | Activity [3] | zone of inhibition at 2000 µg/mL [4] [mm] | zone of inhibition at 2000 µg/mL [6] [mm] | Activity [7] | diameter of the inhibition zone (DIZ) [9] | zone of inhibition at 2000 µg/mL [9] [mm] | zone of inhibition at 2000 µg/mL [1] [mm] | DIZ [12] | DIZ [13]
25 | O=C(O)c1cn(C2CC2)c2cc(N3CCNCC3)c(F)cc2c1=O [CIPROFLOXACIN] | 5 (≈ 15.1 µM) |  | 5 (≈ 15.1 µM) |  |  |  |  |  |  | 26.6 | 24 |  |  |  |  |  | 
